From patent publication US12281057B2 (VERTEX PHARMACEUTICALS INCORPORATED, priority 2017, dated 2025)

Target: truncated form of human NaV 1.8 with full channel activity (Homo sapiens, UniProt Q9Y5Y9)
Assay: E-VIPR Assay Method A for detecting and measuring Nav inhibition (HEK cells, membrane potential FRET dyes, electrical stimulation)
Assay type: cell-based
Conditions: HEK cells expressing human NaV 1.8, HS (human serum) in compound loading buffer, 11 point dose response, top dose 3 μM, Table 20A, read-out: Nav 1.8 MedChem Optical Assay EVIPR Assay Method A HS IC50
In short: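 Read-out: FRET membrane-potential dye ratio (460/580 nm) before and during E-VIPR field stimulation at 10 Hz for 10 s, expressed as % activity between DMSO and positive controls. Cells: HEK with truncated human NaV1.8; compound preincubated 30 min at room temp, final DMSO 0.625%.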

Chain of truncated form of human NaV 1.8 with full channel activity (Q9Y5Y9 126-1722 limits assumed): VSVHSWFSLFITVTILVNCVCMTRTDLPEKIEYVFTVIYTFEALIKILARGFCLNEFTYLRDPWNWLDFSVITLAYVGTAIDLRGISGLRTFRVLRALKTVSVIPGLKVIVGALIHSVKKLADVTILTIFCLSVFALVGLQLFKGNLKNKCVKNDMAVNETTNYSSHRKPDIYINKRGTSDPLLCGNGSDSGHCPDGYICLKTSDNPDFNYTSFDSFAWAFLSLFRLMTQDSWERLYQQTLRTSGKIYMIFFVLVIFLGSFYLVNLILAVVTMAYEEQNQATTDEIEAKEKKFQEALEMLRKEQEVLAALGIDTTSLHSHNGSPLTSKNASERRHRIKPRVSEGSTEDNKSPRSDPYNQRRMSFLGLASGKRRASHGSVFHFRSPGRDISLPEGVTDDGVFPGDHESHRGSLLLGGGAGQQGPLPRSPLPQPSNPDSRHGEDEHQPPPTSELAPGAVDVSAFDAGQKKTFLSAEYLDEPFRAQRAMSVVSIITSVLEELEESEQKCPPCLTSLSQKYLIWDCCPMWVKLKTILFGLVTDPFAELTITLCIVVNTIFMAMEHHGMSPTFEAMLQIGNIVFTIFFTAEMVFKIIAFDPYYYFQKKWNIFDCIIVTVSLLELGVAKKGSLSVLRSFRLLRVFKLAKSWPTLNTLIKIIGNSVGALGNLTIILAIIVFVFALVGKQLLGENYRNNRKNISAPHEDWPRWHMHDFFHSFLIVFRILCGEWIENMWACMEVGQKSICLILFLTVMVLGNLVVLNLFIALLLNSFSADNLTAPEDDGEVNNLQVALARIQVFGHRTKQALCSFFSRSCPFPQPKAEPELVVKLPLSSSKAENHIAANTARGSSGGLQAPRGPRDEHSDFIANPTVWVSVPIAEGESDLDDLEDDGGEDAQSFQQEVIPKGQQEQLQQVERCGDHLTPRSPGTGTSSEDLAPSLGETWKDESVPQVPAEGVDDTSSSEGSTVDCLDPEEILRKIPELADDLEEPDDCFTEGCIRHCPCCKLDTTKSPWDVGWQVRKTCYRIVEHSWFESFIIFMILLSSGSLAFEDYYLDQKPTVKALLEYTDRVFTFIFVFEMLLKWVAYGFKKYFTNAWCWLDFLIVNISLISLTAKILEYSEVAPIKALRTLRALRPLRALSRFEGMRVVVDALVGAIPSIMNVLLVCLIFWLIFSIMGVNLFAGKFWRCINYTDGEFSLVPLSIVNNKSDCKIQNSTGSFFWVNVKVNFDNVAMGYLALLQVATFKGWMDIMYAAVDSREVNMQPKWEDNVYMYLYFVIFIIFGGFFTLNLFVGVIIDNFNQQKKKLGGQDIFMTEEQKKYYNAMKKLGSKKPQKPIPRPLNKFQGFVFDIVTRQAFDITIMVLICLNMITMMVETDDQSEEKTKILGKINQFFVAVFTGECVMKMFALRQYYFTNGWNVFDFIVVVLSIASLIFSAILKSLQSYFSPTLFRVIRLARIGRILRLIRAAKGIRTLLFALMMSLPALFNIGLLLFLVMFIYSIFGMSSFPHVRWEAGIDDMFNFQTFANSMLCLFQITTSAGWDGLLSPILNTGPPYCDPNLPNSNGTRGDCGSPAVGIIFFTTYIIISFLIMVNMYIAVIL

Compound | IC50 [nM]
COc1cc(OC(F)(F)F)ccc1Oc1cc(C(F)(F)F)cc(F)c1C(=O)Nc1cc(C(N)=O)c(F)cc1C [Compound 139, 2-Fluoro-5-[[2-fluoro-6-[2-methoxy-4-(trifluoromethoxy)phenoxy]-4-(trifluoromethyl)benzoyl]amino]-4-methyl-benzamide] | 85
COc1cc(OC(F)(F)F)ccc1Oc1cc(C(F)(F)F)cc(F)c1C(=O)Nc1ccc(F)c(C(N)=O)c1 [Compound 140, N-(3-Carbamoyl-4-fluoro-phenyl)-2-fluoro-6-[2-methoxy-4-(trifluoromethoxy)phenoxy]-4-(trifluoromethyl)benzamide] | 5
NC(=O)c1cc(NC(=O)c2c(Oc3ccc(OC(F)(F)F)c(O)c3)ccc(C(F)(F)F)c2F)ccc1F [Compound 141, N-(3-Carbamoyl-4-fluoro-phenyl)-2-fluoro-6-[3-hydroxy-4-(trifluoromethoxy)phenoxy]-3-(trifluoromethyl)benzamide] | 103
NC(=O)c1cc(NC(=O)c2c(Oc3ccc(OC(F)(F)F)cc3O)ccc(C(F)(F)F)c2F)ccc1F [Compound 142, N-(3-Carbamoyl-4-fluoro-phenyl)-2-fluoro-6-[2-hydroxy-4-(trifluoromethoxy)phenoxy]-3-(trifluoromethyl)benzamide] | 310
COc1cc(OC(F)(F)F)ccc1Oc1cnc(C(F)(F)F)c(F)c1C(=O)Nc1cc(C(N)=O)ncc1C [Compound 143, N-(2-Carbamoyl-5-methyl-4-pyridyl)-3-fluoro-5-[2-methoxy-4-(trifluoromethoxy)phenoxy]-2-(trifluoromethyl)pyridine-4-carboxamide] | 10
COc1cc(OC(F)(F)F)ccc1Oc1cnc(C(F)(F)F)c(OC)c1C(=O)Nc1cc(C(N)=O)ncc1C [Compound 144, N-(2-Carbamoyl-5-methyl-4-pyridyl)-3-methoxy-5-[2-methoxy-4-(trifluoromethoxy)phenoxy]-2-(trifluoromethyl)pyridine-4-carboxamide] | 23
[2H]C([2H])([2H])Oc1cc(OC(F)(F)F)ccc1Oc1ccc(C(F)(F)F)c(F)c1C(=O)Nc1ccc(C)c(C(N)=O)c1 [Compound 145, N-(3-carbamoyl-4-methyl-phenyl)-2-fluoro-6-[2-(trideuteriomethoxy)-4-(trifluoromethoxy)phenoxy]-3-(trifluoromethyl)benzamide] | 9
[2H]C([2H])([2H])Oc1cc(OC(F)(F)F)ccc1Oc1ccc(C(F)(F)F)c(OC)c1C(=O)Nc1cc(C(N)=O)ncc1C [Compound 146, 4-[[2-Methoxy-6-[2-(trideuteriomethoxy)-4-(trifluoromethoxy)phenoxy]-3-(trifluoromethyl)benzoyl]amino]-5-methyl-pyridine-2-carboxamide] | 39
[2H]C([2H])([2H])Oc1cc(OC(F)(F)F)ccc1Oc1cc(OC(F)(F)F)ccc1C(=O)Nc1ccnc(C(N)=O)c1 [Compound 147, 4-[[2-[2-(Trideuteriomethoxy)-4-(trifluoromethoxy)phenoxy]-4-(trifluoromethoxy)benzoyl]amino]pyridine-2-carboxamide] | 130
COc1cc(F)ccc1Oc1cc(OC(F)(F)F)ccc1C(=O)Nc1ccnc(C(N)=O)c1 [Compound 148, 4-[[2-(4-Fluoro-2-methoxy-phenoxy)-4-(trifluoromethoxy)benzoyl]amino]pyridine-2-carboxamide] | 850
NC(=O)c1cc(NC(=O)c2ccc(OC(F)(F)F)cc2Oc2ccc(OC(F)(F)F)cc2)ccn1 [Compound 149, 4-[[4-(Trifluoromethoxy)-2-[4-(trifluoromethoxy)phenoxy]benzoyl]amino]pyridine-2-carboxamide] | 1500
COc1cc(OC(F)(F)F)ccc1Oc1ccc(Cl)cc1C(=O)Nc1cc(C(N)=O)ncc1C [Compound 150, 4-[[5-Chloro-2-[2-methoxy-4-(trifluoromethoxy)phenoxy]benzoyl]amino]-5-methyl-pyridine-2-carboxamide] | 290
COc1cc(OC(F)(F)F)ccc1Oc1cncc(F)c1C(=O)Nc1cc(C(N)=O)ncc1C [Compound 151, 4-[[3-Fluoro-5-[2-methoxy-4-(trifluoromethoxy)phenoxy]pyridine-4-carbonyl]amino]-5-methyl-pyridine-2-carboxamide] | 520
COc1cc(OC(F)(F)F)ccc1Oc1ccc(C(F)(F)F)c(F)c1C(=O)Nc1cc(C(N)=O)ncc1Cl [Compound 152, 5-Chloro-4-[[2-fluoro-6-[2-methoxy-4-(trifluoromethoxy)phenoxy]-3-(trifluoromethyl)benzoyl]amino]pyridine-2-carboxamide] | 17
COc1cc(OC(F)(F)F)ccc1Oc1cc(C(F)(F)F)cc(F)c1C(=O)Nc1cc(C(N)=O)ncc1C [Compound 153, 4-[[2-Fluoro-6-[2-methoxy-4-(trifluoromethoxy)phenoxy]-4-(trifluoromethyl)benzoyl]amino]-5-methyl-pyridine-2-carboxamide] | 22
[2H]C([2H])([2H])Oc1cc(OC(F)(F)F)ccc1Oc1cc(C(F)(F)F)cc(F)c1C(=O)Nc1ccc(C(N)=O)nc1 [Compound 154] | 55
[2H]C([2H])([2H])Oc1cc(OC(F)(F)F)ccc1Oc1ccc(OC(F)F)c(F)c1C(=O)Nc1ccnc(C(N)=O)c1 [Compound 155, 4-[[3-(Difluoromethoxy)-2-fluoro-6-[2-(trideuteriomethoxy)-4-(trifluoromethoxy)phenoxy]benzoyl]amino]pyridine-2-carboxamide] | 17
NC(=O)c1cc(NC(=O)c2cc(OC(F)(F)F)ccc2Oc2ccc(OC(F)(F)F)cc2)ccn1 [Compound 156, 4-[[5-(Trifluoromethoxy)-2-[4-(trifluoromethoxy)phenoxy]benzoyl]amino]pyridine-2-carboxamide] | 560
COc1cc(F)ccc1Oc1ccc(OC(F)(F)F)cc1C(=O)Nc1ccnc(C(N)=O)c1 [Compound 157, 4-[[2-(4-Fluoro-2-methoxy-phenoxy)-5-(trifluoromethoxy)benzoyl]amino]pyridine-2-carboxamide] | 1000
[2H]C([2H])([2H])Oc1cc(OC(F)(F)F)ccc1Oc1ccc(OC(F)(F)F)cc1C(=O)Nc1ccnc(C(N)=O)c1 [Compound 158, 4-[[2-[2-(Trideuteriomethoxy)-4-(trifluoromethoxy)phenoxy]-5-(trifluoromethoxy)benzoyl]amino]pyridine-2-carboxamide] | 150
COc1cc(F)ccc1Oc1cc(C(F)(F)F)cc(C(F)(F)F)c1C(=O)Nc1ccc(C(N)=O)nc1 [Compound 159, 5-[[2-(4-Fluoro-2-methoxy-phenoxy)-4,6-bis(trifluoromethyl)benzoyl]amino]pyridine-2-carboxamide] | 1700
NC(=O)c1cc(NC(=O)c2c(Oc3ccc(OC(F)(F)F)cc3)cc(C(F)(F)F)cc2C(F)(F)F)ccn1 [Compound 160, 4-[[2-[4-(Trifluoromethoxy)phenoxy]-4,6-bis(trifluoromethyl)benzoyl]amino]pyridine-2-carboxamide] | 410
[2H]C([2H])([2H])Oc1cc(OC(F)(F)F)ccc1Oc1ccc(C(F)(F)F)c(F)c1C(=O)Nc1cnc(C(N)=O)cc1C [Compound 161, 5-[[2-fluoro-6-[2-(trideuteriomethoxy)-4-(trifluoromethoxy)phenoxy]-3-(trifluoromethyl)benzoyl]amino]-4-methyl-pyridine-2-carboxamide] | 150
